Experimental data reported in paper PMC10004634 (PLOS ONE, 2023).
Like-named read-outs stand apart in the source and are kept apart here.

Key:
Assay in all cases: biochemical
Set-up in all cases: KINOMEscan scanMAX competition binding, DNA-tagged kinases, qPCR read-out, percent control at 300 nM
[1] = biological target: T1, ABL1(F317L)-phosphorylated (Homo sapiens, UniProt P00519, F317L)
T1 construct: phosphorylated

[2] = biological target: T2, ABL1(Q252H)-phosphorylated (Homo sapiens, UniProt P00519, Q252H)
T2 construct: phosphorylated

CLK4 = CLK4 (Homo sapiens, UniProt Q9HAZ1)
LYN = LYN (Homo sapiens, UniProt P07948)
SRC = SRC (Homo sapiens, UniProt P12931)
SRPK1 = SRPK1 (Homo sapiens, UniProt Q96SB4)
TLK1 = TLK1 (Homo sapiens, UniProt Q9UKI8)
ACVR1B = ACVR1B (Homo sapiens, UniProt P36896)
BMPR2 = BMPR2 (Homo sapiens, UniProt Q13873)
EPHB3 = EPHB3 (Homo sapiens, UniProt P54753)
FES = FES (Homo sapiens, UniProt P07332)
GSK3B = GSK3B (Homo sapiens, UniProt P49841)
MAP3K2 = MAP3K2 (Homo sapiens, UniProt Q9Y2U5)
MKNK2 = MKNK2 (Homo sapiens, UniProt Q9HBH9)
MLK1 = biological target: T3, MLK1 (Homo sapiens, UniProt P80192)
T3 construct: gene MAP3K9

NIM1 = biological target: T4, NIM1 (Homo sapiens, UniProt Q8IY84)
T4 construct: gene NIM1K

PRKCI = PRKCI (Homo sapiens, UniProt P41743)
SgK110 = biological target: T5, SgK110 (Homo sapiens, UniProt P0C264)
T5 construct: gene SBK3

TESK1 = TESK1 (Homo sapiens, UniProt Q15569)
TRPM6 = TRPM6 (Homo sapiens, UniProt Q9BX84)
[3] = biological target: T6, TYK2(JH2domain-pseudokinase) (Homo sapiens, UniProt P29597)
T6 construct: JH2domain-pseudokinase

YANK1 = biological target: T7, YANK1 (Homo sapiens, UniProt Q8WU08)
T7 construct: gene STK32A

YSK4 = biological target: T8, YSK4 (Homo sapiens, UniProt Q56UN5)
T8 construct: gene MAP3K19

[4] = read-out: Percent control / Tirabrutinib
[5] = read-out: Percent control / Ibrutinib
[6] = read-out: Percent control / Zanubrutinib
[7] = read-out: Percent control / Acalabrutinib

Sequence of TLK1 (Q9UKI8 whole entry): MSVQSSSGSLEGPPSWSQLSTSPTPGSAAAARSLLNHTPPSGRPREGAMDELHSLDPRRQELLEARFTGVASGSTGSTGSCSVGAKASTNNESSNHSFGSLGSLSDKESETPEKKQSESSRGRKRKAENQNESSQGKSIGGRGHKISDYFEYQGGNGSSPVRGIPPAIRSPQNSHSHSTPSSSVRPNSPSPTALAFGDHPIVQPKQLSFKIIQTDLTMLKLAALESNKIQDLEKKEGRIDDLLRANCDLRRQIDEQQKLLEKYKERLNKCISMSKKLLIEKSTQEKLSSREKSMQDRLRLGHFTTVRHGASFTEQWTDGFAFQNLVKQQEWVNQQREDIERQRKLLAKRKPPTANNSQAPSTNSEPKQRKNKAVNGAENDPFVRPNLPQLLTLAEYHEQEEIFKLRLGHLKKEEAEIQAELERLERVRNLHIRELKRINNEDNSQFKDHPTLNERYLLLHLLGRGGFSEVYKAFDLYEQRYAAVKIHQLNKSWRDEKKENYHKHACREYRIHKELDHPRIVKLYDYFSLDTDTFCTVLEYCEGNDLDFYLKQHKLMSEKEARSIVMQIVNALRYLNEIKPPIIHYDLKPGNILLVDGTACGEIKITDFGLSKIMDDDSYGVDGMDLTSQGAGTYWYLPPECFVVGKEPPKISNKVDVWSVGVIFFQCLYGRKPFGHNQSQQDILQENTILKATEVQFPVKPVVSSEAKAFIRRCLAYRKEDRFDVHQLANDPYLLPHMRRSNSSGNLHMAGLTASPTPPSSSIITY
T3 sequence (P80192 whole entry): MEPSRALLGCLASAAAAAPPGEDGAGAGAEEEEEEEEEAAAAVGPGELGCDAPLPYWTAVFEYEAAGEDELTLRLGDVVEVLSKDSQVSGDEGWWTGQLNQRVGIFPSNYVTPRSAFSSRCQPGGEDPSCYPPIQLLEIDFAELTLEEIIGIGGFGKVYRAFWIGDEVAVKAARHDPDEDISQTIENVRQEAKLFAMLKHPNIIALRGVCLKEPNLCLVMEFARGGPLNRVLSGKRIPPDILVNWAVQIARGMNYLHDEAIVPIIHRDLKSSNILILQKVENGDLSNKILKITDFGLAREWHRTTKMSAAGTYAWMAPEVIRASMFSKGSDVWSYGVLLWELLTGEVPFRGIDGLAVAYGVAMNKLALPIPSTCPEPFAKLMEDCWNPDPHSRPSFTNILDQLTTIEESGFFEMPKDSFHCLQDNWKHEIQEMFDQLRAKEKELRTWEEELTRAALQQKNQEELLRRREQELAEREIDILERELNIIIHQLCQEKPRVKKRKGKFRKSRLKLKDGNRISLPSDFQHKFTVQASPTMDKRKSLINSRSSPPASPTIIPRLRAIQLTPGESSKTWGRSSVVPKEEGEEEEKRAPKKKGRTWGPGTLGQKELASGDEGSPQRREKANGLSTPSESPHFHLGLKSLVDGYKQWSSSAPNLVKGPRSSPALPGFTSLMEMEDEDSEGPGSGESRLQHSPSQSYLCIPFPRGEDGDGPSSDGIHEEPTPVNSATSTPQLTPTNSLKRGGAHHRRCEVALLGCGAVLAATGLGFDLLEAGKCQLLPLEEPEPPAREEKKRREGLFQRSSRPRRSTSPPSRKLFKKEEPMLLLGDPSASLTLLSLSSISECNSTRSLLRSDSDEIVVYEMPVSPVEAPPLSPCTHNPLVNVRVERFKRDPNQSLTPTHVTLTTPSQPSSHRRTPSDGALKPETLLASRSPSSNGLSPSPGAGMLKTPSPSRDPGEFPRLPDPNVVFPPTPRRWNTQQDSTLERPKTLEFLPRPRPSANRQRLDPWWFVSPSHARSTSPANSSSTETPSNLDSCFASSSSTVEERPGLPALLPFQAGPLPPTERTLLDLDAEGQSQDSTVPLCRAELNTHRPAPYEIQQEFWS
Sequence of FES (P07332 whole entry): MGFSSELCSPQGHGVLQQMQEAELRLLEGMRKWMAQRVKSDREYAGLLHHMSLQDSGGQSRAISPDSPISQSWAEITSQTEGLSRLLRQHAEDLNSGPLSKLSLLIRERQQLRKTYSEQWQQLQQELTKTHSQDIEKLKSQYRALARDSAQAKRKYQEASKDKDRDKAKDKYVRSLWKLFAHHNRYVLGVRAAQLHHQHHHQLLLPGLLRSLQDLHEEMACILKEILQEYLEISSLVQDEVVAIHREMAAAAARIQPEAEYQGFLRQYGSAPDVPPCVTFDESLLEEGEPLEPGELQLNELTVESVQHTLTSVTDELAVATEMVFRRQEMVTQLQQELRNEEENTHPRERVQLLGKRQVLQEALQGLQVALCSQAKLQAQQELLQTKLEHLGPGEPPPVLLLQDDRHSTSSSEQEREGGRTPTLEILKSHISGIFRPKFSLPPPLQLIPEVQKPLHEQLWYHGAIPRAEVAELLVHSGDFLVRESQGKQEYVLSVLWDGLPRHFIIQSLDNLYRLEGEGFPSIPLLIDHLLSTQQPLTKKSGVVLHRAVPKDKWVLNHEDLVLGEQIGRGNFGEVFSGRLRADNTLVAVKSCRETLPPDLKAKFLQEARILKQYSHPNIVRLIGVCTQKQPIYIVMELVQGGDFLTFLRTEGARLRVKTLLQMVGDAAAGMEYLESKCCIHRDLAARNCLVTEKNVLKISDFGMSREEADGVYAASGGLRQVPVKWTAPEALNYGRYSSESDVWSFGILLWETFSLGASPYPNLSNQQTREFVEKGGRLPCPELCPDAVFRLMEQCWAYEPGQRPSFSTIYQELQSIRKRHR
T6 sequence (P29597 whole entry): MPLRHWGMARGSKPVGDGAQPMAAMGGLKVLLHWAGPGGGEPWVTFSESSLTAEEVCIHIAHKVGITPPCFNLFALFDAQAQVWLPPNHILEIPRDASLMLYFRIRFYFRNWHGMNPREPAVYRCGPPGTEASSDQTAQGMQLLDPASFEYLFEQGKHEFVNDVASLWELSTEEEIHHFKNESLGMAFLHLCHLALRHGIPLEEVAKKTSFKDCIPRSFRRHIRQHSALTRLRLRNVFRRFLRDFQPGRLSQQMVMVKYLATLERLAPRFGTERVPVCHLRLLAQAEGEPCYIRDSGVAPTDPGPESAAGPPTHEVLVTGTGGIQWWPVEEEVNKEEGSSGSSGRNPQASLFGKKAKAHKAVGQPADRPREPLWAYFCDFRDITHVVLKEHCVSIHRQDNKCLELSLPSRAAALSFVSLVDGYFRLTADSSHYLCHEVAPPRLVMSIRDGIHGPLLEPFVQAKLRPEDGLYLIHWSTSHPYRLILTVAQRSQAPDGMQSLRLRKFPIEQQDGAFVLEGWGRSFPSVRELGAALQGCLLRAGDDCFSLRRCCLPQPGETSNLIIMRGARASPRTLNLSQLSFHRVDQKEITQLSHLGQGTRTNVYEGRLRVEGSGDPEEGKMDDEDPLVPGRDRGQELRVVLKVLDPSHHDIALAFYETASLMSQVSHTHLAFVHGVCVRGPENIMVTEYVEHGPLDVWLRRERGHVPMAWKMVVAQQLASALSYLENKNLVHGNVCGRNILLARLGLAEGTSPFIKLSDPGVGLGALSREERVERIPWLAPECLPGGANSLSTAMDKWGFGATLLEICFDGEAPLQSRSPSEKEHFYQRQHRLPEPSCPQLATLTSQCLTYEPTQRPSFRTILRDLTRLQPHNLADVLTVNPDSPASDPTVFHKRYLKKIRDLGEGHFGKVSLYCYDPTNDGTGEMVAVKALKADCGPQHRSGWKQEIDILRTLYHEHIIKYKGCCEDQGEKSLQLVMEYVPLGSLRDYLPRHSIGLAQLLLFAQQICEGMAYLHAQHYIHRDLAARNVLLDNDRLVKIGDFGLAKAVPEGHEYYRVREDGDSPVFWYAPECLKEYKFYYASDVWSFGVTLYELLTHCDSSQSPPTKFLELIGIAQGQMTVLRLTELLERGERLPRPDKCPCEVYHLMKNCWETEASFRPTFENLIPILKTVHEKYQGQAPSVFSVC
T5 sequence (P0C264 whole entry): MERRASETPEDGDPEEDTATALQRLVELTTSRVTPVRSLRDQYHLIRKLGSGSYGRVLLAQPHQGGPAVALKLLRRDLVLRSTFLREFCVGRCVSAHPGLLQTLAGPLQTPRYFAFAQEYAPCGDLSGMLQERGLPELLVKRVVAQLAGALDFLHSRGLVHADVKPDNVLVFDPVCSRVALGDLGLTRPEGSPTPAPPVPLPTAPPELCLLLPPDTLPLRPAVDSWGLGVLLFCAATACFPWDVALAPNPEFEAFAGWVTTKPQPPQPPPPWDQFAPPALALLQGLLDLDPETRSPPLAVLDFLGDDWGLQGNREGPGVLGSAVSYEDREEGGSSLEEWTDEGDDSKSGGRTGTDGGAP
Sequence of TESK1 (Q15569 whole entry): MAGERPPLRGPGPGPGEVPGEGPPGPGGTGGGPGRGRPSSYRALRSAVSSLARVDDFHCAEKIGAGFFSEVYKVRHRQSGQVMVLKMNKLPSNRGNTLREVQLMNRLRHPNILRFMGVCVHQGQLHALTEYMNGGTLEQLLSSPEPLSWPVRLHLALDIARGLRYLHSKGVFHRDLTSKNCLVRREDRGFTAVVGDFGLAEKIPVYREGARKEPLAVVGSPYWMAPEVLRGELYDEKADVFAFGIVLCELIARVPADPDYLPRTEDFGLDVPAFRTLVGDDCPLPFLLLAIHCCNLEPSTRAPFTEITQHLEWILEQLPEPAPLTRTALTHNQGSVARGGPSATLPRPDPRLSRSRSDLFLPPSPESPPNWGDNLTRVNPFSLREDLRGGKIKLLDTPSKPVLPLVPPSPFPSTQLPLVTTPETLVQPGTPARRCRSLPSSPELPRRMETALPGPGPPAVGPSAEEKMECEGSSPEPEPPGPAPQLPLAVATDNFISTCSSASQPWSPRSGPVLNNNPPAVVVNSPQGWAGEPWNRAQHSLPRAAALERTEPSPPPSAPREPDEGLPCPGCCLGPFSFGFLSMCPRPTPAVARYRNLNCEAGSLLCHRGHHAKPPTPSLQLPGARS

**Q.** With CC#CC(=O)N1CC[C@@H](n2c(=O)n(-c3ccc(Oc4ccccc4)cc3)c3c(N)ncnc32)C1 [Tirabrutinib] as the compound, how does the remaining binding at 0.3 µM [1, 4] read?
**A.** Its remaining binding at 0.3 µM is 57%.

**Q.** And the remaining binding at 0.3 µM [2, 4]?
**A.** The remaining binding at 0.3 µM was 87%.

**Q.** What about the remaining binding at 0.3 µM (CLK4; [4]) of the same compound?
**A.** The remaining binding at 0.3 µM was 82%.

**Q.** What about the remaining binding at 0.3 µM (LYN; [4]) of the same compound?
**A.** Its remaining binding at 0.3 µM is 76%.

**Q.** What about the remaining binding at 0.3 µM (SRC; [4]) of the same compound?
**A.** The remaining binding at 0.3 µM was 95%.

**Q.** Which results are given for C=CC(=O)N1CCC[C@@H](n2nc(-c3ccc(Oc4ccccc4)cc3)c3c(N)ncnc32)C1 [Ibrutinib]?
**A.** remaining binding at 0.3 µM (SRPK1; [5]): 85%; remaining binding at 0.3 µM (TLK1; [5]): 80%

**Q.** Which remaining binding at 0.3 µM (ACVR1B; [6]) does the source give for C=CC(=O)N1CCC([C@@H]2CCNc3c(C(N)=O)c(-c4ccc(Oc5ccccc5)cc4)nn32)CC1 [Zanubrutinib] here?
**A.** Its remaining binding at 0.3 µM is 92%.

**Q.** And the remaining binding at 0.3 µM (BMPR2; [6])?
**A.** Its remaining binding at 0.3 µM is 93%.

**Q.** And the remaining binding at 0.3 µM (CLK4; [6])?
**A.** Its remaining binding at 0.3 µM is 99%.

**Q.** And the remaining binding at 0.3 µM (EPHB3; [6])?
**A.** The remaining binding at 0.3 µM was 96%.

**Q.** What about the remaining binding at 0.3 µM (FES; [6]) of the same compound?
**A.** The remaining binding at 0.3 µM was 100%.

**Q.** What about the remaining binding at 0.3 µM (GSK3B; [6]) of the same compound?
**A.** The remaining binding at 0.3 µM was 74%.

**Q.** What about the remaining binding at 0.3 µM (MAP3K2; [6]) of the same compound?
**A.** The remaining binding at 0.3 µM was 85%.

**Q.** What about the remaining binding at 0.3 µM (MKNK2; [6]) of the same compound?
**A.** Its remaining binding at 0.3 µM is 84%.

**Q.** What about the remaining binding at 0.3 µM (MLK1; [6]) of the same compound?
**A.** Its remaining binding at 0.3 µM is 84%.

**Q.** And the remaining binding at 0.3 µM (NIM1; [6])?
**A.** The remaining binding at 0.3 µM was 97%.

**Q.** And the remaining binding at 0.3 µM (PRKCI; [6])?
**A.** Its remaining binding at 0.3 µM is 68%.

**Q.** What about the remaining binding at 0.3 µM (SgK110; [6]) of the same compound?
**A.** The remaining binding at 0.3 µM was 91%.

**Q.** And the remaining binding at 0.3 µM (TESK1; [6])?
**A.** Its remaining binding at 0.3 µM is 83%.

**Q.** What about the remaining binding at 0.3 µM (TLK1; [6]) of the same compound?
**A.** The remaining binding at 0.3 µM was 92%.

**Q.** What about the remaining binding at 0.3 µM (TRPM6; [6]) of the same compound?
**A.** The remaining binding at 0.3 µM was 63%.

**Q.** What about the remaining binding at 0.3 µM [3, 6] of the same compound?
**A.** Its remaining binding at 0.3 µM is 82%.

**Q.** And the remaining binding at 0.3 µM (YANK1; [6])?
**A.** The remaining binding at 0.3 µM was 75%.

**Q.** What about the remaining binding at 0.3 µM (YSK4; [6]) of the same compound?
**A.** Its remaining binding at 0.3 µM is 100%.

**Q.** Which results are given for CC#CC(=O)N1CCC[C@H]1c1nc(-c2ccc(C(=O)Nc3ccccn3)cc2)c2c(N)nccn12 [Acalabrutinib]?
**A.** remaining binding at 0.3 µM [1, 7]: 81%; remaining binding at 0.3 µM [2, 7]: 86%; remaining binding at 0.3 µM (ACVR1B; [7]): 99%; remaining binding at 0.3 µM (BMPR2; [7]): 99%; remaining binding at 0.3 µM (EPHB3; [7]): 91%; remaining binding at 0.3 µM (FES; [7]): 90%; remaining binding at 0.3 µM (GSK3B; [7]): 97%; remaining binding at 0.3 µM (LYN; [7]): 88%; remaining binding at 0.3 µM (MAP3K2; [7]): 97%; remaining binding at 0.3 µM (MKNK2; [7]): 93%; remaining binding at 0.3 µM (MLK1; [7]): 92%; remaining binding at 0.3 µM (NIM1; [7]): 99%; remaining binding at 0.3 µM (PRKCI; [7]): 87%; remaining binding at 0.3 µM (SRC; [7]): 99%; remaining binding at 0.3 µM (SRPK1; [7]): 84%; remaining binding at 0.3 µM (SgK110; [7]): 94%; remaining binding at 0.3 µM (TESK1; [7]): 79%; remaining binding at 0.3 µM (TRPM6; [7]): 96%; remaining binding at 0.3 µM [3, 7]: 97%; remaining binding at 0.3 µM (YANK1; [7]): 97%; remaining binding at 0.3 µM (YSK4; [7]): 74%
